Reference: patent US20250179017A1 (GUANGDONG NEWOPP BIOPHARMACEUTICALS CO., LTD., priority 2022, published 2025)

Biological target: T1, human EP2 (PTGER2) (Homo sapiens, UniProt P43116)
T1 construct: Cayman Chemical (Human EP2 Reporter Assay Kit)
Experiment: EP2 antagonist assay (HEK-293 CNG membrane potential cAMP assay / 293T SEAP reporter assay, PGE2-stimulated)
Assay type: cell-based
Conditions: EP2 antagonist activity; concentration for 50% inhibition of signal compared to DMSO
How it was run: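 Two formats. In a CRE-SEAP reporter assay, reverse-transfected 293T cells received compound with PGE2 (13 nM final) for 6-8 h, then luminescence was read. In the ACTOne CNG format, HEK-293 cells were preincubated with compound for 15 min at RT, stimulated with 5 nM PGE2 for 30 min, and read by membrane-potential dye fluorescence. IC50 was taken versus DMSO.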

T1 sequence (P43116 whole entry): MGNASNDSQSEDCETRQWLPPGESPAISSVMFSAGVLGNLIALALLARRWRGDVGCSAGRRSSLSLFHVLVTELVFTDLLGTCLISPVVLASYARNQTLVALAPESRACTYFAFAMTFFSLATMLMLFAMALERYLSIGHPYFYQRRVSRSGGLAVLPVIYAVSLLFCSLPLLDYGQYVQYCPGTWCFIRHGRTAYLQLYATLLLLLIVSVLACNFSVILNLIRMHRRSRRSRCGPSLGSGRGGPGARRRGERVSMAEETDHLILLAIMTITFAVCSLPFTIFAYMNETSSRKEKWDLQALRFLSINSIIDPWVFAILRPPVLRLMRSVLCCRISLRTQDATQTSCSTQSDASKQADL

Row | IC50 [µM] | SMILES
1 | < 0.1 | O=C(O)c1ccc(CNC(=O)c2cc(-c3ccc(Cl)c(F)c3)cc3ccn(Cc4ccc(C(F)(F)F)cc4)c23)cc1 [Example 91, 4-((5-(4-chloro-3-fluorophenyl)-1-(4-(trifluoromethyl)benzyl)-1H-indole-7-carboxamido)methyl)benzoic]
2 | < 0.1 | Cc1ccccc1-c1cc(C(=O)NCc2ccc(C(=O)O)cc2)c2c(ccn2Cc2ccc(C(F)(F)F)cc2)c1 [Example 92, 4-((5-(o-tolyl)-1-(4-(trifluoromethyl)benzyl)-1H-indole-7-carboxamido)methyl)benzoic acid]
3 | 0.1 to 1 | Nc1ccccc1-c1cc(C(=O)NCc2ccc(C(=O)O)cc2)c2c(ccn2Cc2ccc(C(F)(F)F)cc2)c1 [Example 93, 4-((5-(2-aminophenyl)-1-(4-(trifluoromethyl)benzyl)-1H-indole-7-carboxamido)methyl)benzoic acid]
4 | < 0.1 | O=C(O)c1ccc(CNC(=O)c2cc(-c3ccc(F)c(Cl)c3)cc3ccn(Cc4ccc(C(F)(F)F)cc4)c23)cc1 [Example 94, 4-((5-(3-chloro-4-fluorophenyl)-1-(4-(trifluoromethyl)benzyl)-1H-indole-7-carboxamido)methyl)benzoic]
5 | < 0.1 | O=C(O)c1ccc(CNC(=O)c2cc(-c3cc(F)cc(Cl)c3)cc3ccn(Cc4ccc(C(F)(F)F)cc4)c23)cc1 [Example 95, 4-((5-(3-chloro-5-fluorophenyl)-1-(4-(trifluoromethyl)benzyl)-1H-indole-7-carboxamido)methyl)benzoic acid]
6 | < 0.1 | N#Cc1cccc(-c2cc(C(=O)NCc3ccc(C(=O)O)cc3)c3c(cnn3Cc3ccc(C(F)(F)F)cc3)c2)c1 [Example 98, 4-((5-(3-cyanophenyl)-1-(4-(trifluoromethyl)benzyl)-1H-indazole-7-carboxamido)methyl)benzoic acid]
7 | < 0.1 | O=C(O)c1ccc(CNC(=O)c2cc(-c3cc(F)cc(F)c3)cc3cnn(Cc4ccc(C(F)(F)F)cc4)c23)cc1 [Example 99, 4-((5-(3,5-difluorophenyl)-1-(4-(trifluoromethyl)benzyl)-1H-indazole-7-carboxamido)methyl)benzoic acid]
8 | 0.1 to 1 | O=C(O)c1ccc(CNC(=O)c2ccc(Nc3ccccc3)c3ccn(Cc4cccc(Cl)c4)c23)cc1 [Example 103, 4-((1-(3-chlorobenzyl)-4-(phenylamino)-1H-indole-7-carboxamido)methyl)benzoic acid]
9 | < 0.1 | O=C(O)c1ccc(CNC(=O)c2cc(-c3cccnc3)cc3ccn(Cc4cccc(Cl)c4)c23)cc1 [Example 104, 4-((1-(3-chlorobenzyl)-5-(pyridin-3-yl)-1H-indole-7-carboxamido)methyl)benzoic acid]
10 | < 0.1 | O=C(O)c1ccc(CNC(=O)c2cc(-c3ccccc3)cc3ccn(Cc4cccc(Cl)c4)c23)cc1 [Example 105, 4-((1-(3-chlorobenzyl)-5-phenyl-1H-indole-7-carboxamido)methyl)benzoic acid]
11 | < 0.1 | C[C@H](NC(=O)c1cc(-c2cccc(C#N)c2)cc2ccn(Cc3cccc(Cl)c3)c12)c1ccc(C(=O)O)cc1 [Example 108, (S)-4-(1-(1-(3-chlorobenzyl)-5-(3-cyanophenyl)-1H-indole-7-carboxamido)ethyl)benzoic acid]
12 | < 0.1 | C[C@H](NC(=O)c1cc(-c2cccnc2)cc2ccn(Cc3cccc(Cl)c3)c12)c1ccc(C(=O)O)cc1 [Example 109, (S)-4-(1-(1-(3-chlorobenzyl)-5-(pyridin-3-yl)-1H-indole-7-carboxamido)ethyl)benzoic acid]
13 | < 0.1 | C[C@H](NC(=O)c1cc(-c2ccccc2)cc2ccn(Cc3cccc(Cl)c3)c12)c1ccc(C(=O)O)cc1 [Example 110, (S)-4-(1-(1-(3-chlorobenzyl)-5-phenyl-1H-indole-7-carboxamido)ethyl)benzoic acid]
14 | < 0.1 | C[C@H](NC(=O)c1cc(-c2cc(F)cc(F)c2)cc2ccn(Cc3cccc(Cl)c3)c12)c1ccc(C(=O)O)cc1 [Example 111, (S)-4-(1-(1-(3-chlorobenzyl)-5-(3,5-difluorophenyl)-1H-indole-7-carboxamido)ethyl)benzoic acid]
15 | 0.1 to 1 | CNC(=O)c1cccc(-c2cc(C(=O)NCc3ccc(C(=O)O)cc3)c3c(ccn3Cc3ccc(C(F)(F)F)cc3)c2)c1 [Example 116, 4-((5-(3-(methylcarbamoyl)phenyl)-1-(4-(trifluoromethyl)benzyl)-1H-indole-7-carboxamido)methyl)benzoic acid]
16 | 0.1 to 1 | N#Cc1cccc(-c2cc(C(=O)NC34CC(CC(=O)O)(C3)C4)c3c(Sc4ccc(C(F)(F)F)cc4)c[nH]c3c2)c1 [Example 118, 2-(3-(6-(3-cyanophenyl)-3-((4-(trifluoromethyl)phenyl)thio)-1H-indole-4-carboxamido)bicyclo[1.1.1]pentan-1-yl)acetic acid]

Row | IC50 [µM] | SMILES
17 | 0.1 to 1 | N#Cc1cccc(-c2cc(C(=O)NCC34CC(C(=O)O)(C3)C4)c3c(Sc4ccc(C(F)(F)F)cc4)c[nH]c3c2)c1 [Example 119, 3-((6-(3-cyanophenyl)-3-((4-(trifluoromethyl)phenyl)thio)-1H-indole-4-carboxamido)methyl)bicyclo[1.1.1]pentane-1-carboxylic acid]
18 | 0.1 to 1 | Cn1cc(Sc2ccc(C(F)(F)F)cc2)c2c(C(=O)NCc3ccc(C(=O)O)cc3)cc(-c3cccc(C#N)c3)cc21 [Example 120, 4-((6-(3-cyanophenyl)-1-methyl-3-((4-(trifluoromethyl)phenyl)thio)-1H-indole-4-carboxamido)methyl)benzoic acid]
19 | 0.1 to 1 | Cn1cc(Sc2ccc(C(F)(F)F)cc2)c2c(C(=O)NCc3ccc(C(=O)O)cc3)cc(-c3cccc(C(N)=O)c3)cc21 [Example 121, 4-((6-(3-carbamoylphenyl)-1-methyl-3-((4-(trifluoromethyl)phenyl)thio)-1H-indole-4-carboxamido)methyl)benzoic acid]
20 | < 0.1 | O=C(O)c1ccc(CNC(=O)c2cc(-c3ccccc3)cc3ccn(Cc4cccc(C(F)(F)F)c4)c23)cc1 [Example 122, 4-((5-phenyl-1-(3-(trifluoromethyl)benzyl)-1H-indole-7-carboxamido)methyl)benzoic acid]
21 | 0.1 to 1 | O=C(O)c1ccc(CNC(=O)c2cc(-c3cccnc3)cc3ccn(Cc4cccc(C(F)(F)F)c4)c23)cc1 [Example 123, 4-((5-(pyridin-3-yl)-1-(3-(trifluoromethyl)benzyl)-1H-indole-7-carboxamido)methyl)benzoic acid]
22 | < 0.1 | O=C(O)c1ccc(CNC(=O)c2cc(-c3cc(F)cc(F)c3)cc3ccn(Cc4cccc(C(F)(F)F)c4)c23)cc1 [Example 125, 4-((5-(3,5-difluorophenyl)-1-(3-(trifluoromethyl)benzyl)-1H-indole-7-carboxamido)methyl)benzoic acid]
23 | < 0.1 | N#Cc1cccc(-c2cc(C(=O)NCc3ccc(C(=O)O)cc3)c3c(ccn3Cc3cccc(C(F)(F)F)c3)c2)c1 [Example 126, 4-((5-(3-cyanophenyl)-1-(3-(trifluoromethyl)benzyl)-1H-indole-7-carboxamido)methyl)benzoic acid]
24 | < 0.1 | C[C@H](NC(=O)c1cc(-c2cccc(C#N)c2)cc2ccn(Cc3cccc(C(F)(F)F)c3)c12)c1ccc(C(=O)O)cc1 [Example 127, (S)-4-(1-(5-(3-cyanophenyl)-1-(3-(trifluoromethyl)benzyl)-1H-indole-7-carboxamido)ethyl)benzoic acid]
25 | < 0.1 | C[C@H](NC(=O)c1cc(-c2cccnc2)cc2ccn(Cc3cccc(C(F)(F)F)c3)c12)c1ccc(C(=O)O)cc1 [Example 128, (S)-4-(1-(5-(pyridin-3-yl)-1-(3-(trifluoromethyl)benzyl)-1H-indole-7-carboxamido)ethyl)benzoic acid]
26 | < 0.1 | C[C@H](NC(=O)c1cc(-c2cc(F)cc(F)c2)cc2ccn(Cc3cccc(C(F)(F)F)c3)c12)c1ccc(C(=O)O)cc1 [Example 130, (S)-4-(1-(5-(3,5-difluorophenyl)-1-(3-(trifluoromethyl)benzyl)-1H-indole-7-carboxamido)ethyl)benzoic acid]
27 | 0.1 to 1 | O=C(O)c1ccc(C2(NC(=O)c3cc(-c4ccccc4)cc4ccn(Cc5cccc(C(F)(F)F)c5)c34)CC2)cc1 [Example 131, 4-(1-(5-phenyl-1-(3-(trifluoromethyl)benzyl)-1H-indole-7-carboxamido)cyclopropyl)benzoic acid]
28 | 0.1 to 1 | O=C(O)c1ccc(C2(NC(=O)c3cc(-c4cc(F)cc(F)c4)cc4ccn(Cc5cccc(C(F)(F)F)c5)c34)CC2)cc1 [Example 132, 4-(1-(5-(3,5-difluorophenyl)-1-(3-(trifluoromethyl)benzyl)-1H-indole-7-carboxamido)cyclopropyl)benzoic acid]
29 | 0.1 to 1 | N#Cc1cccc(-c2cc(C(=O)NC3(c4ccc(C(=O)O)cc4)CC3)c3c(ccn3Cc3cccc(C(F)(F)F)c3)c2)c1 [Example 133, 4-(1-(5-(3-cyanophenyl)-1-(3-(trifluoromethyl)benzyl)-1H-indole-7-carboxamido)cyclopropyl)benzoic acid]
30 | < 0.1 | O=C(O)c1ccc(CNC(=O)c2cc(-c3ccc(F)cc3)cc3cnn(Cc4cccc(C(F)(F)F)c4)c23)cc1 [Example 138, 4-((5-(4-fluorophenyl)-1-(3-(trifluoromethyl)benzyl)-1H-indazole-7-carboxamido)methyl)benzoic acid]
31 | < 0.1 | O=C(O)c1ccc(CNC(=O)c2cc(-c3cc(F)cc(F)c3)cc3cnn(Cc4cccc(C(F)(F)F)c4)c23)cc1 [Example 139, 4-((5-(3,5-difluorophenyl)-1-(3-(trifluoromethyl)benzyl)-1H-indazole-7-carboxamido)methyl)benzoic acid]
32 | 0.1 to 1 | O=C(O)c1ccc(C2(NC(=O)c3cc(-c4ccccc4)cc4cnn(Cc5cccc(C(F)(F)F)c5)c34)CC2)cc1 [Example 140, 4-(1-(5-phenyl-1-(3-(trifluoromethyl)benzyl)-1H-indazole-7-carboxamido)cyclopropyl)benzoic acid]
